Data: the RepoRT retention time repository (doi:10.1016/j.chroma.2015.11.014)

Assay: RP, Agilent ZORBAX Eclipse Plus C18, 150 × 2.1 mm, 3.5 µm, 40 °C, 0.3 mL/min, estimated dead time 1.1 min; A: water + 0.1% formic acid; B: acetonitrile + 0.1% formic acid; gradient (min/%B) 0/2 1/2 2/20 16.5/98 22/98
Conditions: stereoisomer not certain

| Compound | LC retention time |
| --- | --- |
| O=C(C1CCCCC1)N1CC(=O)N2CCc3ccccc3C2C1 (stereo not drawn) | 10.8 min |
| CC1(C)CC(=O)CC(C)(C)N1 | 2.82 min |
| c1ccc2n[nH]nc2c1 | 5.88 min |
| S=c1[nH]c2ccccc2o1 | 8.26 min |
| CN(C)c1nc2c(ncn2C2OC(CO)C(O)C2O)c(=O)[nH]1 (stereo not drawn) | 4.57 min |
| COc1cccc(OC)c1OC | 9.03 min |
| OCCN1CCN(CCCN2c3ccccc3C=Cc3ccccc32)CC1 | 7.24 min |
| CCC1OC(=O)CC(O)C(C)C(OC2OC(C)C(OC3CC(C)(O)C(O)C(C)O3)C(N(C)C)C2O)C(CC=O)CC(C)C(=O)C=CC(C)=CC1COC1OC(C)C(O)C(OC)C1OC (stereo not drawn) | 8.18 min |
| COC(=O)CCCCCCCCC(=O)OC1CC(C)(C)N(C)C(C)(C)C1 | 8.34 min |
| C=C(OCC)[P+](c1ccccc1)(c1ccccc1)c1ccccc1 | 9.3 min |
| O=c1[nH]c(=O)c2cn[nH]c2[nH]1 | 2.85 min |
| O=c1[nH]cnc2c1ncn2C1CC(O)C(CO)O1 (stereo not drawn) | 4.18 min |
| O=C1CC2(CCCCC2)CO1 | 9.65 min |
| CCCN(CCC)C(=O)SCc1ccccc1 | 15.5 min |
| CC(CC(C)(C)C)CP(=O)(O)CC(C)CC(C)(C)C (stereo not drawn) | 14.4 min |
| CCCCCCCCCCCC[N+](C)(C)CCOc1ccccc1 | 12 min |
| CSCC1OC(n2cnc3c(N)ncnc32)C(O)C1O (stereo not drawn) | 4.79 min |
| O=c1[nH]cnc2c1cnn2C1OC(CO)C(O)C1O (stereo not drawn) | 4.31 min |
| CN(C)CCC=C1c2ccccc2COc2ccccc21 | 7.45 min |
| CCCCCCCCCC[N+](C)(C)CCCCCCCC | 12.4 min |
| CNC(=O)ON=C(C)C(C)SC (stereo not drawn) | 7.75 min |
| Cc1ncc([N+](=O)[O-])n1CCO | 4.81 min |
| CSc1nc(N)nc2nc[nH]c12 | 4.91 min |
| CSc1ncnc2c1ncn2C1OC(CO)C(O)C1O (stereo not drawn) | 5.67 min |
| CCCCCCCCc1ccc(CCC(N)(CO)CO)cc1 | 10.2 min |
| CCCC[P+](CCCC)(CCCC)CC1OCCO1 | 8.76 min |

| Compound | LC retention time |
| --- | --- |
| O=P(Cc1ccccc1)(c1ccccc1)c1ccccc1 | 10.8 min |
| CCSc1nc2ccccc2s1 | 13.7 min |
| COc1ccccc1Oc1c(NS(=O)(=O)c2ccc(C(C)(C)C)cc2)nc(-c2ncccn2)nc1OCCO | 12.1 min |
| ON(Cc1ccccc1)Cc1ccccc1 | 8.96 min |
| CN1CCN2c3ncccc3Cc3ccccc3C2C1 (stereo not drawn) | 5.46 min |
| Cn1cnc([N+](=O)[O-])c1Sc1ncnc2nc[nH]c12 | 5.37 min |
| CNC(=O)Oc1cccc2c1OC(C)(C)C2 | 9.75 min |
| COC(=O)C1CCC(=O)N1 (stereo not drawn) | 4.58 min |
| c1ccc(C[P+](c2ccccc2)(c2ccccc2)c2ccccc2)cc1 | 8.71 min |
| COC[P+](c1ccccc1)(c1ccccc1)c1ccccc1 | 7.5 min |
| CC[N+](CC)(CC)CC | 2.28 min |
| Oc1cccc2n[nH]nc12 | 5.34 min |
| CCC1OC(=O)C(C)C(OC2CC(C)(OC)C(O)C(C)O2)C(C)C(OC2OC(C)CC(N(C)C)C2O)C(C)(O)CC(C)CN(C)C(C)C(O)C1(C)O (stereo not drawn) | 6.25 min |
| CCCCCCCCCCCCCCCCCCCC[N+](C)(C)C | 15.7 min |
| Cc1c[nH]c(=O)[nH]c1=O | 3.23 min |
| CCCCCCCCCCCC[N+](C)(C)CCCCCCCCCCCC | 15.3 min |
| COP(=O)(OC)OC | 4.97 min |
| COC1C(OC(C)=O)CC(=O)OC(C)CC=CC=CC(O)C(C)CC(CC=O)C1OC1OC(C)C(OC2CC(C)(O)C(OC(=O)CC(C)C)C(C)O2)C(N(C)C)C1O (stereo not drawn) | 8.87 min |
| CN1CCCC1=O | 4.39 min |
| CC1(C)NC(=O)NC1=O | 3.47 min |
| CN(C)CCOC(c1ccccc1)c1ccccc1 | 7.72 min |
| CCCCCCCCCCCCOS(=O)(=O)O | 14.9 min |
| CC(C)[P+](c1ccccc1)(c1ccccc1)c1ccccc1 | 7.72 min |
| CCP(=O)(c1ccccc1)c1ccccc1 | 8.82 min |
| Cc1ccc(OP(=O)(Oc2ccc(C)cc2)Oc2ccc(C)cc2)cc1 | 15.9 min |

Further lines, results first:

| LC retention time | Compound |
| --- | --- |
| 5.08 min | CCOC(=O)Nc1cccc(N)c1C |
| 6.74 min | CC(=O)Nc1ccccc1 |
| 8.7 min | CC(C)(C(=O)O)c1ccc(C(O)CCCN2CCC(C(O)(c3ccccc3)c3ccccc3)CC2)cc1 (stereo not drawn) |
| 8.09 min | CCOC(=O)C(C)[P+](c1ccccc1)(c1ccccc1)c1ccccc1 (stereo not drawn) |
| 5.86 min | COc1cc(C(=O)c2cnc(N)nc2N)cc(OC)c1OC |
| 4.89 min | O=C(NO)c1ccccc1 |
| 10 min | CC(C)(C(=O)O)c1ccc(C(=O)CCCN2CCC(OC(c3ccccc3)c3ccccc3)CC2)cc1 |
| 8.87 min | CN(C)c1ccc(C=O)cc1 |
| 4.98 min | CN(Cc1cnc2nc(N)nc(N)c2n1)c1ccc(C(=O)NC(CCC(=O)O)C(=O)O)cc1 (stereo not drawn) |
| 9.38 min | CCN(CC)C(=O)C(C#N)=Cc1cc(O)c(O)c([N+](=O)[O-])c1 |
| 4.66 min | O=C(O)c1c2ccccc2nc2ccccc12 |
| 7.28 min | CC(=O)C[P+](c1ccccc1)(c1ccccc1)c1ccccc1 |
| 7.85 min | CCOC(=O)C(CCc1ccccc1)NC(C)C(=O)N1C(C(=O)O)CC2CCCC21 (stereo not drawn) |
| 9 min | CC(C)C(NC(=O)OC(C)(C)C)C(=O)O (stereo not drawn) |
| 7.1 min | CC(=O)c1ccc(C(=O)O)cc1 |
| 5.22 min | CC(=O)Nc1cc(NC(C)=O)cc(C(=O)O)c1 |

| LC retention time | Compound |
| --- | --- |
| 12.8 min | CC(C)Cc1ccc(C(C)C(=O)O)cc1 (stereo not drawn) |
| 6.26 min | Cc1cc(=O)n(-c2ccccc2)n1C |
| 10.3 min | CC(=O)C1CCC2C3CCC4=CC(=O)CCC4(C)C3C(O)CC12C (stereo not drawn) |
| 7.36 min | CC(C)NCC(O)COc1cccc2ccccc12 (stereo not drawn) |
| 7.04 min | COCC(C)N(C(=O)CS(=O)(=O)O)c1c(C)csc1C (stereo not drawn) |
| 6.86 min | CCN1CCN(C(=O)NC(C(=O)NC2C(=O)N3C(C(=O)O)=C(CSc4nnnn4C)CSC23)c2ccc(O)cc2)C(=O)C1=O (stereo not drawn) |
| 12.4 min | CCOC(=O)C1=C(C)NC(C)=C(C(=O)OC)C1c1cccc([N+](=O)[O-])c1 (stereo not drawn) |
| 8.43 min | CC12C=CC(=O)C=C1CCC1C2C(O)CC2(C)C1CCC2(O)C(=O)CO (stereo not drawn) |
| 11 min | O=c1cc(-c2ccccc2)oc2cc(O)cc(O)c12 |
| 8.67 min | COC(=O)Nc1nc2ccc(C(=O)c3ccccc3)cc2[nH]1 |
| 9.18 min | O=C1CC(c2ccc(O)cc2)Oc2cc(O)cc(O)c21 (stereo not drawn) |
| 13.1 min | COCC(=O)Nc1cc(Sc2ccccc2)ccc1N=C(NC(=O)OC)NC(=O)OC |
| 4.42 min | COC(=O)Nc1cccc(N)c1C |
| 10.1 min | COc1ccc(-c2coc3cc(O)ccc3c2=O)cc1 |
| 8.6 min | COC(=O)C1C2CC3c4[nH]c5cc(OC)ccc5c4CCN3CC2CC(OC(=O)c2cc(OC)c(OC)c(OC)c2)C1OC (stereo not drawn) |
| 8.21 min | COCC(C)N(C(=O)C(=O)O)c1c(C)csc1C (stereo not drawn) |
